# Values quoted from earlier work, collected in patent US20230023092A1, “TREATMENT OF DEPRESSION AND OTHER VARIOUS DISORDERS WITH PSILOCYBIN” (COMPASS […], priority 2019, published 2023).
# Tested on: subjects
# Settings: prevalence unknown but likely; cited from earlier work
smiles,measurement,value
"CN(C)CCc1c[nH]c2cccc(OP(=O)(O)O)c12 [Psilocybin, psilocybin]",Frequency of rare side effects: HPPD/flashbacks; worsening of mental state after drug experience,unknown but likely <2%)
